DBAASP
Values after ≈ are worked out from the molar mass of the structure shown. Values joined by “and” are separate entries in the source; they are usually repeats but may differ in a detail not shown here. Identical values can stand only once. Blank lines part the entries; values can stand above or below the molecule they belong to.

What was measured:
Test in all cases: ≥ marks a high value that may be exact or a test limit, other limits are often not marked, values filed in µg/mL are converted to µM
[1] = system: Escherichia coli ATCC 25922
Escherichia coli K88 = system: Escherichia coli K88
[2] = system: Escherichia coli O157:H7 CICC 21530
[3] = system: Lacticaseibacillus rhamnosus 1.0911
[4] = system: Lacticaseibacillus rhamnosus 1.0936
[5] = system: Lacticaseibacillus rhamnosus 1.9021
[6] = system: Lacticaseibacillus rhamnosus 8014
[7] = system: Pseudomonas aeruginosa ATCC 27853
[8] = system: Pseudomonas aeruginosa PAO1
[9] = system: Salmonella enterica subsp. enterica serovar Choleraesuis CVCC 503
[10] = system: Salmonella enterica subsp. enterica serovar Pullorum C79-13
[11] = system: Salmonella enterica subsp. enterica serovar Typhimurium ATCC 14028
[12] = system: Staphylococcus aureus ATCC 29213
[13] = system: Staphylococcus aureus ATCC 43300
[14] = system: Staphylococcus epidermidis ATCC 12228
[15] = system: Streptococcus agalactiae BNCC 185941
Escherichia coli INV-a = system: Escherichia coli INV-a
[16] = system: Lactococcus lactis MG1363
[17] = system: Legionella pneumophila Lens
[18] = system: Candida albicans CGMCC 2.2086
[19] = system: Candida parapsilosis CGMCC 2.3989
[20] = system: Candida tropicalis CGMCC 2.1975
Escherichia coli 078 = system: Escherichia coli 078
Escherichia coli K99 = system: Escherichia coli K99
Escherichia coli UB1005 = system: Escherichia coli UB1005
[21] = system: Salmonella enterica subsp. enterica serovar Pullorum ATCC 7913
[22] = system: Salmonella enterica subsp. enterica serovar Typhimurium C77-31
[23] = system: Staphylococcus aureus ATCC 25923
[24] = system: Acinetobacter calcoaceticus ATCC 23055
[25] = system: Acinetobacter calcoaceticus C402
[26] = system: Burkholderia cepacia ATCC 25416
Candida albicans CAN105 = system: Candida albicans CAN105
Corynebacterium xerosis = system: Corynebacterium xerosis
[27] = system: Enterobacter cloacae ATCC 13047
[28] = system: Enterobacter cloacae C601
[29] = system: Enterococcus faecalis ATCC 29212
[30] = system: Enterococcus faecalis C625
Escherichia coli KF111 = system: Escherichia coli KF111
Escherichia coli KF130 = system: Escherichia coli KF130
[31] = system: Listeria monocytogenes NCTC 7973
[32] = system: Mycobacterium tuberculosis H37Rv
[33] = system: Pseudomonas aeruginosa H187
[34] = system: Pseudomonas aeruginosa H374
[35] = system: Pseudomonas aeruginosa H547
[36] = system: Pseudomonas aeruginosa H744
[37] = system: Pseudomonas aeruginosa K799
[38] = system: Pseudomonas aeruginosa Z61
[39] = system: Salmonella enterica subsp. enterica serovar Typhimurium ATCC 14028s
[40] = system: Staphylococcus aureus K147
[41] = system: Staphylococcus aureus SAP 0017
[42] = system: Staphylococcus epidermidis
[43] = system: Staphylococcus haemolyticus
[44] = system: Stenotrophomonas maltophilia ATCC 13637
[45] = system: Streptococcus pyogenes ATCC 19615

Compound: CC(C)C[C@H](NC(=O)CNC(=O)[C@H](Cc1c[nH]c2ccccc12)NC(=O)CNC(=O)[C@H](CC(C)C)NC(=O)[C@H](CCCCN)NC(=O)[C@@H](N)CCCCN)C(=O)N[C@@H](CCCCN)C(=O)N[C@@H](CCCCN)C(N)=O [KKLGWGLKK]
- MIC [1]: > 128 µM
- MIC (Escherichia coli K88): ≥ 128 µM
- MIC [2]: ≥ 128 µM
- MIC [3]: ≥ 128 µM
- MIC [4]: ≥ 128 µM
- MIC [5]: ≥ 128 µM
- MIC [6]: ≥ 128 µM
- MIC [7]: > 128 µM
- MIC [8]: > 128 µM
- MIC [9]: ≥ 128 µM
- MIC [10]: ≥ 128 µM
- MIC [11]: > 128 µM
- MIC [12]: > 128 µM
- MIC [13]: > 128 µM
- MIC [14]: > 128 µM
- MIC [15]: ≥ 128 µM

Compound: CC[C@H](C)[C@H](NC(=O)CNC(=O)[C@H](CCCCN)NC(=O)[C@H](Cc1c[nH]c2ccccc12)NC(=O)[C@H](CC(N)=O)NC(=O)[C@H](C)N)C(=O)N[C@@H](C)C(=O)N[C@@H](C)C(=O)N[C@@H](CCSC)C(=O)N[C@@H](C)C(=O)N[C@@H](CCCCN)C(=O)N[C@@H](CCCCN)C(=O)N[C@@H](CC(C)C)C(=O)N[C@@H](CC(C)C)C(N)=O [ANWKGIAAMAKKLL]
- MIC (Escherichia coli INV-a): ≥ 33 µM
- MIC [16]: 18 µM (≈ 27.3 µg/mL)

Compound: CC[C@H](C)[C@H](NC(=O)[C@H](CCCN=C(N)N)NC(=O)[C@H](C)NC(=O)[C@H](C)N)C(=O)N[C@H](C(=O)N[C@@H](CC(C)C)C(=O)N[C@@H](CCCN=C(N)N)C(=O)N[C@H](C(=O)N[C@@H](CCCN=C(N)N)C(=O)N[C@@H](Cc1ccccc1)C(=O)N[C@@H](CCCN=C(N)N)C(N)=O)[C@@H](C)O)[C@@H](C)CC [AARIILRTRFR]
- MIC [18]: ≥ 128 µM
- MIC [19]: ≥ 64 µM
- MIC [20]: ≥ 32 µM
- MIC (Escherichia coli 078): 4 µM (≈ 5.49 µg/mL)
- MIC (Escherichia coli K88): 4 µM (≈ 5.49 µg/mL)
- MIC (Escherichia coli K99): 4 µM (≈ 5.49 µg/mL)
- MIC (Escherichia coli UB1005): 4 µM (≈ 5.49 µg/mL)
- MIC [7]: > 128 µM
- MIC [21]: 8 µM (≈ 11 µg/mL)
- MIC [11]: 16 µM (≈ 21.9 µg/mL)
- MIC [22]: 16 µM (≈ 21.9 µg/mL)
- MIC [23]: 16 µM (≈ 21.9 µg/mL)
- MIC [13]: 16 µM (≈ 21.9 µg/mL)
- MIC [14]: 16 µM (≈ 21.9 µg/mL)

Now from value to molecule, other results behind:

- MIC [17]: 1.3 µM (≈ 3.12 µg/mL)
Compound: CC[C@H](C)[C@H](NC(=O)[C@H](CC(C)C)NC(=O)CNC(=O)[C@H](CCCCN)NC(=O)[C@@H](NC(=O)[C@@H](NC(=O)[C@H](CCC(=O)O)NC(=O)[C@@H](NC(=O)[C@@H](NC(=O)[C@H](CCCCN)NC(=O)[C@H](C)NC(=O)[C@@H](NC(=O)[C@@H](NC(=O)CNC(=O)[C@H](C)NC(=O)[C@@H](N)CCSC)C(C)C)[C@@H](C)CC)[C@@H](C)CC)C(C)C)[C@@H](C)CC)C(C)C)C(=O)N[C@@H](CC(=O)O)C(=O)N[C@@H](CCC(N)=O)C(=O)N[C@@H](Cc1ccccc1)C(=O)N[C@H](C(=O)N[C@@H](CCC(N)=O)C(=O)N[C@@H](CCCCN)C(=O)O)[C@@H](C)O [MAGVIAKIVEIVKGLIDQFTQK]

- MIC [24]: 0.699 µM (≈ 2 µg/mL)
- MIC [25]: 2.8 µM and 1.4 µM
- MIC [26]: 22.4 µM (≈ 64 µg/mL)
- MIC (Candida albicans CAN105): 22.4 µM (≈ 64 µg/mL)
- MIC (Corynebacterium xerosis): 0.349 µM (≈ 1 µg/mL)
- MIC [27]: 0.699 µM (≈ 2 µg/mL)
- MIC [28]: 2.8 µM and 1.4 µM
- MIC [29]: > 22.4 µM
- MIC [30]: 5.59 µM and 11.2 µM
- MIC (Escherichia coli KF111): 0.699 µM (≈ 2 µg/mL)
- MIC (Escherichia coli KF130): 0.349 µM (≈ 1 µg/mL)
- MIC [31]: 5.59 µM (≈ 16 µg/mL)
- MIC [32]: 0.734 µM (≈ 2.1 µg/mL)
- MIC [7]: 2.8 µM and 4 µM
- MIC [33]: 11.2 µM (≈ 32 µg/mL)
- MIC [34]: 0.699 µM (≈ 2 µg/mL)
- MIC [35]: 1.4 µM (≈ 4 µg/mL)
- MIC [36]: 0.699 µM (≈ 2 µg/mL)
- MIC [37]: 1.4 µM (≈ 4 µg/mL)
- MIC [38]: 1.05 µM (≈ 3 µg/mL)
- MIC [39]: 1.05 µM (≈ 3 µg/mL)
- MIC [23]: 22.4 µM (≈ 64 µg/mL)
- MIC [40]: 22.4 µM (≈ 64 µg/mL)
- MIC [41]: 22.4 µM (≈ 64 µg/mL)
- MIC [42]: 11.2 µM (≈ 32 µg/mL)
- MIC [44]: 0.699 µM (≈ 2 µg/mL)
- MIC [45]: 5.59 µM (≈ 16 µg/mL)
Compound: CC[C@H](C)[C@H](NC(=O)[C@H](CC(C)C)NC(=O)[C@@H]1CCCN1C(=O)[C@H](CCCCN)NC(=O)[C@H](C)NC(=O)[C@@H](NC(=O)[C@@H](NC(=O)[C@@H](NC(=O)[C@@H](NC(=O)[C@H](CCCCN)NC(=O)[C@H](CCCCN)NC(=O)[C@H](C)NC(=O)[C@H](C)NC(=O)[C@H](CO)NC(=O)[C@@H](NC(=O)[C@H](CC(C)C)NC(=O)[C@H](CCCCN)NC(=O)[C@H](CCCCN)NC(=O)[C@@H](NC(=O)[C@H](Cc1ccccc1)NC(=O)[C@H](CO)NC(=O)[C@H](CCCCN)NC(=O)[C@H](Cc1c[nH]c2ccccc12)NC(=O)[C@@H](N)CCCCN)[C@@H](C)CC)[C@@H](C)O)C(C)C)C(C)C)[C@@H](C)O)[C@@H](C)O)C(=O)N[C@@H](CO)C(=O)N[C@@H](CO)C(=O)O [KWKSFIKKLTSAAKKVVTTAKPLISS]
- MIC [43]: 22.4 µM (≈ 64 µg/mL)
